For assay [1], the target named is T1, GRK2 (Homo sapiens, UniProt P25098).
T1 sequence (P25098 1-689): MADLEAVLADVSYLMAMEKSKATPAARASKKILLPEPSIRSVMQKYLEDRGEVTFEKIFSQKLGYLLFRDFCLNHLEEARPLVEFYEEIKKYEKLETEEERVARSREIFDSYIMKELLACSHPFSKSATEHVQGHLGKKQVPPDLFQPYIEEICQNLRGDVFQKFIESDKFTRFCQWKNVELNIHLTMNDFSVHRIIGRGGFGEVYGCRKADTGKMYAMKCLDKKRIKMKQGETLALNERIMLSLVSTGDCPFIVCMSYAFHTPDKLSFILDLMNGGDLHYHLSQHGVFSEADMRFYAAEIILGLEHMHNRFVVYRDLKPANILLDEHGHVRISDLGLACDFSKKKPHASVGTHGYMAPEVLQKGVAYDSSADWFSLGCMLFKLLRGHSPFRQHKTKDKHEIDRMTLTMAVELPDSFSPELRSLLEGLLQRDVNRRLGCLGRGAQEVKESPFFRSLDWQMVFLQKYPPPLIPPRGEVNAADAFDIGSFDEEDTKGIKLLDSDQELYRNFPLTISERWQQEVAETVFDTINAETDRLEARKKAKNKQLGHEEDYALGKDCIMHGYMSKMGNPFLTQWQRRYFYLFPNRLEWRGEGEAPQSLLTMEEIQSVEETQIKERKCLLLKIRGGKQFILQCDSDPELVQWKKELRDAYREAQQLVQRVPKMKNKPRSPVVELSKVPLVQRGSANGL
The assay is described as follows: GRK2 Degradation Assay and Western Blot in PAXF1657 cells. The class given is cell-based. The arrangement: endogenous in cells; host or cells: PAXF1657. The method in brief: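 GRK2 degradation judged by immunoblot: NP40 lysates separated by SDS-PAGE and probed for GRK2 and β-actin, with HRP/ECL detection. Lysates came from PAXF1657 cells exposed to 0–10 μM compound for 6–24 h after reaching 70% confluency.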
In general terms: A western blot detects proteins with antibodies after separation by electrophoresis.

The target of assay [2] is T1, GRK2. Briefly: GRK2 Inhibition Assay (TR-FRET, Example 1). It is filed as biochemical. The method in brief:
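TR-FRET phosphorylation readout: Eu anti-TopoIIα antibody with EDTA added after a 90 min RT kinase reaction of 1 nM GRK2, 7 μM ATP and 50 nM ULight-TopoIIα. Compounds were pre-incubated with enzyme 30 min at room temperature beforehand.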

The subject of assay [3] is PAXF1657 EV. The assay is described as follows: 7-day cellular proliferation assay (CellTiter-Glo), PAXF1657 EV. The class given is cell-based. The method in brief: (§1)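 500 cells/well, RPMI1640 + 10% H.I. FBS, adhered overnight at 37° C. Compound 10-pt dilution, 30 μM-0.0002 μM final, 0.3% DMSO. 3 d, media + compound replaced, further 4 d. Viability by CellTiter-Glo; untreated plates read at time of dosing.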

For assay [4], the system named is PAXF1657 KO Clone #4. The assay is described as follows: 7-day cellular proliferation assay (CellTiter-Glo), PAXF1657 KO Clone #4. It is filed as cell-based. The method in brief: as §1
Background: Cellular ATP, detected with luciferase, serves as a proxy for viable cell number.

The mark [5] stands for this setting: Conc 0.3 uM, read-out: Degradation Assay - 3 point: Degradation (%).
Where [6] appears, read: Conc 1 uM, read-out: Degradation Assay - 3 point: Degradation (%).
[7] abbreviates: Conc 3 uM, read-out: Degradation Assay - 3 point: Degradation (%).
Setting [8] is: Table 4, Example 1 assay, read-out: Enzymatic GRK2 IC50: Av IC50 GRK2.
[9] abbreviates: proliferation, read-out: GeoMean IC50 (UM) PAXF1657 EV.
Where [10] appears, read: proliferation, read-out: GeoMean IC50 (uM) PAXF1657 KO Clone #4.

Where a name gives a salt, the structure may show the parent alone. Read-outs that look alike come from different tables or passages of the source.

Regarding `C[C@@H](NC(=O)c1cccc(NCc2nnc(-c3ccncn3)n2C)c1)c1ccc(OCCCCCCOCCOCCOCCC(=O)N2CCN(c3cc4c(cc3F)C(=O)N(C3CCC(=O)NC3=O)C4=O)CC2)cc1` (stereo partly drawn) [Compound D137, N-((1R)-1-(4-(6-(2-(2-(3-(4-(2-(2,6-dioxopiperidin-3-yl)-6-fluoro-1,3-dioxoisoindolin-5-yl)piperazin-1-yl)-3-oxopropoxy)ethoxy)ethoxy)hexyloxy)phenyl)ethyl)-3-((4-methyl-5-(pyrimidin-4-yl)-4H-1,2,4-triazol-3-yl)methylamino)benzamide], the inhibition at 0.3 µM in assay [1] (setting [5]) is 71.2%. Besides, the inhibition at 1 µM in assay [1] (setting [6]) worked out at 79.2%. In assay [1] (setting [7]), the inhibition at 3 µM was 80.4%. Moreover, the IC50 came to 12.5 nM in assay [2] (setting [8]), 0.14 µM in assay [3] (setting [9]) and 22.8 µM in assay [4] (setting [10]).
`C[C@@H](NC(=O)c1cccc(NCc2nnc(-c3ccncn3)n2C)c1)c1cccc(OCCCCCOCCCOCCNc2cccc3c2CN(C2CCC(=O)NC2=O)C3=O)c1` (stereo partly drawn) [Compound D196, N-((1R)-1-(3-(5-(3-(2-(2-(2,6-dioxopiperidin-3-yl)-1-oxoisoindolin-4-ylamino)ethoxy)propoxy)pentyloxy)phenyl)ethyl)-3-((4-methyl-5-(pyrimidin-4-yl)-4H-1,2,4-triazol-3-yl)methylamino)benzamide]: the inhibition at 0.3 µM in assay [1] (setting [5]) was 66.2%. Besides, the inhibition at 1 µM in assay [1] (setting [6]) was 71.1%. The inhibition at 3 µM in assay [1] (setting [7]) was 38.9%. For the same compound, the IC50 was 23.8 nM in assay [2] (setting [8]), 0.36 µM in assay [3] (setting [9]) and > 30 µM in assay [4] (setting [10]).
Take `C[C@@H](NC(=O)c1cccc(NCc2nnc(-c3ccncn3)n2C)c1)c1cccc(OCCN2CCN(c3ccc4c(c3)CN(C3CCC(=O)NC3=O)C4=O)CC2)c1` (stereo partly drawn) [Compound D128, N-((1R)-1-(3-(2-(4-(2-(2,6-dioxopiperidin-3-yl)-1-oxoisoindolin-5-yl)piperazin-1-yl)ethoxy)phenyl)ethyl)-3-((4-methyl-5-(pyrimidin-4-yl)-4H-1,2,4-triazol-3-yl)methylamino)benzamide]: the inhibition at 0.3 µM in assay [1] (setting [5]) was -23.2%. For the same compound, in assay [1] (setting [6]), the inhibition at 1 µM stood at 8.53%. Also, in assay [1] (setting [7]), the inhibition at 3 µM was -38.6%. The results for the IC50 in assay [2] (setting [8]), in assay [3] (setting [9]) and in assay [4] (setting [10]) were 16.3 nM, 0.8 µM and > 30 µM, respectively.
`C[C@@H](NC(=O)c1cccc(NCc2nnc(-c3ccncn3)n2C)c1)c1cccc(OCCCCCCOCCOCC(=O)Nc2cccc3c2CN(C2CCC(=O)NC2=O)C3=O)c1` (stereo partly drawn) [Compound D170, N-((1R)-1-(3-((6-(2-(2-((2-(2,6-dioxopiperidin-3-yl)-1-oxoisoindolin-4-yl)amino)-2-oxoethoxy)ethoxy)hexyl)oxy)phenyl)ethyl)-3-(((4-methyl-5-(pyrimidin-4-yl)-4H-1,2,4-triazol-3-yl)methyl)amino)benzamide]: the inhibition at 0.3 µM in assay [1] (setting [5]) worked out at 51.6%. For the same compound, the inhibition at 1 µM in assay [1] (setting [6]) is 72.9%. Also, the inhibition at 3 µM in assay [1] (setting [7]) was 81.5%. Moreover, the values for the IC50 in assay [2] (setting [8]), in assay [3] (setting [9]) and in assay [4] (setting [10]) were 12.1 nM, 0.41 µM and > 30 µM, respectively.
Consider `C[C@H](NC(=O)c1cccc(NCc2nnc(-c3ccncn3)n2C)c1)c1ccc(OCCCCCOCCCOCC(=O)Nc2cccc3c2CN(C2CCC(=O)NC2=O)C3=O)cc1` (stereo partly drawn) [Compound D150, N-((1S)-1-(4-((5-(3-(2-((2-(2,6-dioxopiperidin-3-yl)-1-oxoisoindolin-4-yl)amino)-2-oxoethoxy)propoxy)pentyl)oxy)phenyl)ethyl)-3-(((4-methyl-5-(pyrimidin-4-yl)-4H-1,2,4-triazol-3-yl)methyl)amino)benzamide], for which the inhibition at 0.3 µM in assay [1] (setting [5]) turned out to be 44%. Also, in assay [1] (setting [6]), the inhibition at 1 µM was determined as 43%. Further, in assay [1] (setting [7]), the inhibition at 3 µM was determined as 40%. Moreover, the IC50 is > 1000 nM in assay [2] (setting [8]), 27.7 µM in assay [3] (setting [9]) and > 30 µM in assay [4] (setting [10]).
With `C[C@@H](NC(=O)c1cccc(NCc2nnc(-c3ccncn3)n2C)c1)c1ccc(OCCN2CCN(c3ccc4c(c3)CN(C3CCC(=O)NC3=O)C4=O)CC2)cc1` (stereo partly drawn) [Compound D174, N-((1R)-1-(4-(2-(4-(2-(2,6-dioxopiperidin-3-yl)-1-oxoisoindolin-5-yl)piperazin-1-yl)ethoxy)phenyl)ethyl)-3-((4-methyl-5-(pyrimidin-4-yl)-4H-1,2,4-triazol-3-yl)methylamino)benzamide hydrochloride], the inhibition at 0.3 µM in assay [1] (setting [5]) is 63.6%. Moreover, in assay [1] (setting [6]), the inhibition at 1 µM turned out to be 50.2%. In addition, the inhibition at 3 µM in assay [1] (setting [7]) is 28.3%. Further, the values for the IC50 in assay [2] (setting [8]), in assay [3] (setting [9]) and in assay [4] (setting [10]) were 12 nM, < 0.000458 µM and > 30 µM, respectively.
As for `Cc1ncsc1-c1ccc(CNC(=O)[C@@H]2C[C@@H](O)CN2C(=O)[C@@H](NC(=O)CCCCCOCCOCCOCCCCCCOc2cccc([C@@H](C)NC(=O)c3cccc(NCc4nnc(-c5ccncn5)n4C)c3)c2)C(C)(C)C)cc1` [Compound D79, (2S,4R)-1-((S)-2-(tert-butyl)-22-(3-((R)-1-(3-(((4-methyl-5-(pyrimidin-4-yl)-4H-1,2,4-triazol-3-yl)methyl)amino)benzamido)ethyl)phenoxy)-4-oxo-10,13,16-trioxa-3-azadocosan-1-oyl)-4-hydroxy-N-(4-(4-methylthiazol-5-yl)benzyl)pyrrolidine-2-carboxamide], in assay [1] (0.3 uM, PAXF1657 EV, 24 hrs, read-out: % GRK2 degradation at 0.3 uM in PAXF1657 EV (24 hrs)), the inhibition at 0.3 µM was 52%. Besides, the inhibition at 1 µM in assay [1] (1 uM, PAXF1657 EV, 24 hrs, read-out: % GRK2 degradation at 1 uM in PAXF1657 EV (24 hrs)) stood at 54%. The inhibition at 3 µM in assay [1] (3 uM, PAXF1657 EV, 24 hrs, read-out: % GRK2 degradation at 3 uM in PAXF1657 EV (24 hrs)) was found to be 8%. The IC50 is < 100 nM in assay [2] (TR-FRET, 7 μM ATP, read-out: Enzymatic GRK2 Assay: IC50 (nM) (Example 1)); < 1 µM in assay [3] (168 h, 7-day, read-out: 7-day proliferation assay: IC50 GeoMean (uM) [Cell Line: PAXF1657 EV]); > 10 µM in assay [4] (168 h, 7-day, read-out: 7-day proliferation assay: IC50 GeoMean (uM) [Cell Line: PAXF1657 KO Clone #4]).
For the compound `C[C@@H](NC(=O)c1cccc(NCc2nnc(-c3ccncn3)n2C)c1)c1cccc(C(=O)N2CCC(CCN3CCN(c4ccc5c(c4)CN(C4CCC(=O)NC4=O)C5=O)CC3)CC2)c1` (stereo partly drawn) [Compound D120], the inhibition at 0.3 µM in assay [1] (setting [5]) came out at 90.8%. The inhibition at 1 µM in assay [1] (setting [6]) turned out to be 94.8%. Moreover, in assay [1] (setting [7]), the inhibition at 3 µM stood at 89.6%. The IC50 in assay [2] (setting [8]) is 9.55 nM; in assay [3] (setting [9]), 0.04 µM; in assay [4] (setting [10]), > 30 µM.
As to `C[C@@H](NC(=O)c1cccc(NCc2nnc(-c3ccncn3)n2C)c1)c1cccc(C(=O)N2CCC(CN3CCN(c4ccc5c(c4)CN(C4CCC(=O)NC4=O)C5=O)CC3)CC2)c1` (stereo partly drawn) [Compound D122, N-((1R)-1-(3-(4-((4-(2-(2,6-dioxopiperidin-3-yl)-1-oxoisoindolin-5-yl)piperazin-1-yl)methyl)piperidine-1-carbonyl)phenyl)ethyl)-3-((4-methyl-5-(pyrimidin-4-yl)-4H-1,2,4-triazol-3-yl)methylamino)benzamide hydrochloride], the inhibition at 0.3 µM in assay [1] (setting [5]) was determined as 84.9%. Further, in assay [1] (setting [6]), the inhibition at 1 µM was determined as 90.6%. Moreover, the inhibition at 3 µM in assay [1] (setting [7]) came out at 92.5%. For the same compound, the IC50 in assay [2] (setting [8]) was 12.3 nM; in assay [3] (setting [9]) it was 0.1 µM; in assay [4] (setting [10]) it was > 30 µM.

Values taken from patent US20240174637A1, “DEGRADERS OF GRK2 AND USES THEREOF” (Sonata Therapeutics, Inc., priority 2021, published 2024).
